Measured values reported in ChEMBL document CHEMBL4004859, “Synthesis, antimalarial activity, heme binding and docking studies of N-substituted 4-aminoquinoline-pyrimidine molecular hybrids” (Eur J Med Chem, 2017).
Calls of active or inactive are those of the source. No cut-off for these calls is given here.

What was measured:
[1] = Resistance index, ratio of IC50 for Plasmodium falciparum W2 infected in red blood cells to IC50 for Plasmodium falciparum D6 infected in red blood cells; format: functional
[2] = Selectivity index, ratio of IC50 for African green monkey Vero cells to IC50 for chloroquine-resistant Plasmodium falciparum W2 infected in red blood cells; format: toxicity, cell-based; conditions: read-out: Ratio IC50
Plasmodium falciparum [3] = assay: Antimalarial activity against chloroquine-sensitive Plasmodium falciparum D6 infected in red blood cells after 72 hrs by Malstat reagent based LDH assay; format: functional, cell-based; conditions: D6, 72 h
Vero = assay: Cytotoxicity against African green monkey Vero cells assessed as reduction in cell viability up to 10 uM after 48 hrs by neutral red assay; format: cell-based; conditions: chlorocebus sabaeus
Plasmodium falciparum [4] = assay: Antimalarial activity against chloroquine-resistant Plasmodium falciparum W2 infected in red blood cells after 72 hrs by Malstat reagent based LDH assay; format: functional, cell-based; conditions: W2, 72 h
[5] = Selectivity index, ratio of IC50 for African green monkey Vero cells to IC50 for chloroquine-sensitive Plasmodium falciparum D6 infected in red blood cells; format: toxicity, cell-based; conditions: read-out: Ratio IC50
mu-oxodimeric heme [6] = assay: Binding affinity to mu-oxodimeric heme (unknown origin) in aqueous NaOH solution assessed as 1:1 stoichiometry for heme-compound complex at pH 5.8 by Job's plot method
mu-oxodimeric heme [7] = assay: Binding affinity to mu-oxodimeric heme (unknown origin) in aqueous NaOH solution up to 15 uM at pH 5.8 by titration-based UV-vis spectrophotometric analysis
Heme [8] = assay: Binding affinity to monomeric heme (unknown origin) assessed as mole fraction of compound required to show 1:1 stoichiometry for heme-compound complex at pH 5.6 to 7.4 by Job's plot method
Heme [9] = assay: Binding affinity to monomeric heme (unknown origin) in DMSO/water solution up to 40 uM at pH 5.6 by titration-based UV-vis spectrophotometric analysis
Plasmodium falciparum [10] = assay: Antimalarial activity against chloroquine-resistant Plasmodium falciparum W2 infected in red blood cells up to 10 uM after 72 hrs by Malstat reagent based LDH assay; format: functional, cell-based

Row | Structure (SMILES) | Ratio IC50 [1] | selectivity ratio [2] | IC50 (Plasmodium falciparum [3]) [nM] | Activity (Vero) | IC50 (Plasmodium falciparum [4]) [nM] | selectivity ratio [5] | Activity (mu-oxodimeric heme [6]) | Activity (mu-oxodimeric heme [7]) | Activity (mole fraction) (Heme [8]) | Activity (Heme [9]) | Activity (Plasmodium falciparum [10])
1 | Cc1cc(N2CCOCC2)nc(N(CCNc2ccnc3cc(Cl)ccc23)Cc2ccco2)n1 | 1.46 | > 159 | 43 | Non-Toxic | 63 | > 233 |  |  |  |  | 
2 | Cc1cc(N(CCCNc2ccnc3cc(Cl)ccc23)Cc2ccco2)nc(N2CCCCC2)n1 | 1.67 | > 139 | 43 | Non-Toxic | 72 | > 233 |  |  |  |  | 
3 | CCN1CCN(c2cc(C)nc(N(CCCNc3ccnc4cc(Cl)ccc34)Cc3ccco3)n2)CC1 | 0.975 | > 256 | 40 | Non-Toxic | 39 | > 250 |  |  |  |  | 
4 | Cc1cc(N(CCCNc2ccnc3cc(Cl)ccc23)Cc2ccco2)nc(Cl)n1 | 4.2 | > 22 | 108 | Non-Toxic | 454 | > 92.6 |  |  |  |  | 
5 | CCN(CC)CCCC(C)Nc1ccnc2cc(Cl)ccc12 (stereo not drawn) [CHLOROQUINE] |  |  |  | Non-Toxic |  |  |  |  |  |  | 
6 | Cc1cc(N(CCNc2ccnc3cc(Cl)ccc23)Cc2ccco2)nc(N2CCN(C)CC2)n1 | 1 | > 244 | 41 | Non-Toxic | 41 | > 244 |  |  |  |  | 
7 | CCN1CCN(c2nc(C)cc(N(CCNc3ccnc4cc(Cl)ccc34)Cc3ccco3)n2)CC1 | 1.05 | > 250 | 38 | Non-Toxic | 40 | > 263 | Active | Active | 0.5 | Active | 
8 | Cc1cc(N2CCCCC2)nc(N(CCCNc2ccnc3cc(Cl)ccc23)Cc2ccco2)n1 | 3.33 | > 50.8 | 59 | Non-Toxic | 197 | > 169 |  |  |  |  | 
9 | Cc1cc(N2CCCCC2)nc(N(CCNc2ccnc3cc(Cl)ccc23)Cc2ccco2)n1 | 4.63 | > 49 | 44 | Non-Toxic | 204 | > 222 |  |  |  |  | 
10 | Cc1cc(N2CCCC2)nc(N(CCCNc2ccnc3cc(Cl)ccc23)Cc2ccco2)n1 | 3.17 | > 61.7 | 51 | Non-Toxic | 162 | > 196 |  |  |  |  | 
11 | Cc1cc(N(CCCNc2ccnc3cc(Cl)ccc23)Cc2ccco2)nc(N2CCCC2)n1 | 1.72 | > 132 | 44 | Non-Toxic | 76 | > 222 |  |  |  |  | 
12 | Cc1cc(N(CCNc2ccnc3cc(Cl)ccc23)Cc2ccco2)nc(N2CCOCC2)n1 | 2.21 | > 82 | 55 | Non-Toxic | 122 | > 182 |  |  |  |  | 
13 | Cc1cc(Cl)nc(N(CCCNc2ccnc3cc(Cl)ccc23)Cc2ccco2)n1 | 1.5 | > 19.8 | 337 | Non-Toxic | 506 | > 29.7 |  |  |  |  | 
14 | CCN1CCN(c2nc(C)cc(N(CCCNc3ccnc4cc(Cl)ccc34)Cc3ccco3)n2)CC1 | 0.977 | > 233 | 44 | Non-Toxic | 43 | > 222 |  |  |  |  | 
15 | CCc1nc(N)nc(N)c1-c1ccc(Cl)cc1 [PYRIMETHAMINE] |  |  |  | Non-Toxic |  | > 1110 |  |  |  |  | inactive
16 | Cc1cc(N2CCN(C)CC2)nc(N(CCCNc2ccnc3cc(Cl)ccc23)Cc2ccco2)n1 | 0.979 | > 208 | 49 | Non-Toxic | 48 | > 204 |  |  |  |  | 
17 | Cc1cc(N(CCNc2ccnc3cc(Cl)ccc23)Cc2ccco2)nc(N2CCCC2)n1 | 3.26 | > 61.3 | 50 | Non-Toxic | 163 | > 200 |  |  |  |  | 
18 | Cc1cc(N(CCNc2ccnc3cc(Cl)ccc23)Cc2ccco2)nc(N2CCCCC2)n1 | 3.26 | > 50.2 | 61 | Non-Toxic | 199 | > 164 |  |  |  |  | 
19 | Cc1cc(N(CCNc2ccnc3cc(Cl)ccc23)Cc2ccco2)nc(Cl)n1 | 1.17 | > 133 | 64 | Non-Toxic | 75 | > 156 |  |  |  |  | 
20 | CCN1CCN(c2cc(C)nc(N(CCNc3ccnc4cc(Cl)ccc34)Cc3ccco3)n2)CC1 | 1.11 | > 213 | 42 | Non-Toxic | 47 | > 238 |  |  |  |  | 
21 | Cc1cc(N(CCCNc2ccnc3cc(Cl)ccc23)Cc2ccco2)nc(N2CCOCC2)n1 | 5.58 | > 38.9 | 46 | Non-Toxic | 257 | > 217 |  |  |  |  | 
22 | Cc1cc(Cl)nc(N(CCNc2ccnc3cc(Cl)ccc23)Cc2ccco2)n1 | 0.775 | > 161 | 80 | Non-Toxic | 62 | > 125 |  |  |  |  | 
23 | Cc1cc(N(CCCNc2ccnc3cc(Cl)ccc23)Cc2ccco2)nc(N2CCN(C)CC2)n1 | 1.04 | > 213 | 45 | Non-Toxic | 47 | > 206 |  |  |  |  | 
24 | Cc1cc(N2CCN(C)CC2)nc(N(CCNc2ccnc3cc(Cl)ccc23)Cc2ccco2)n1 | 1 | > 238 | 42 | Non-Toxic | 42 | > 238 |  |  |  |  | 
25 | Cc1cc(N2CCCC2)nc(N(CCNc2ccnc3cc(Cl)ccc23)Cc2ccco2)n1 | 3.23 | > 51.5 | 60 | Non-Toxic | 194 | > 167 |  |  |  |  | 
26 | C[C@@H]1CC[C@H]2[C@@H](C)C(=O)O[C@@H]3O[C@@]4(C)CC[C@@H]1[C@]32OO4 [ARTEMISININ] | 0.511 | 435 | 45 | Non-Toxic | 23 | > 222 |  |  |  |  | 
27 | Cc1cc(N2CCOCC2)nc(N(CCCNc2ccnc3cc(Cl)ccc23)Cc2ccco2)n1 | 3.15 | > 59.9 | 53 | Non-Toxic | 167 | > 189 |  |  |  |  | 
